Values joined by “and” are separate entries in the source; they are usually repeats but may differ in a detail not shown here. Identical values can stand only once. “Also recorded” adds a separate entry of the source. Like-named read-outs stand apart in the source and are kept apart here. Starred links: 1 amine or outer side, 2 acyl side, 3 side chain; linkers in the order of their positions; H or OH if unused. Non-standard residues stand in square brackets, D forms with d. Residues, ends and D or L forms follow the SMILES beside them. X1 = CC[C@@H](C)[C@@H](O[*:1])C(=O)[*:2]; NMeVal(β-OH) = CN[C@H](C(=O)O)C(C)(C)O; NMeF = CN[C@@H](Cc1ccccc1)C(=O)O; aIle = CC[C@@H](C)[C@H](N)C(=O)O; NMeV = CN[C@H](C(=O)O)C(C)C
Legend:
[1] = tested on: L. major LV39 WT promastigotes; experiment: microbe, parasite or virus in culture; format: cell-based, Leishmania major
Description: (§1) Log phase L. major LV39 WT and spt2 promastigotes were inoculated at 1.0×10^5 cells/ml and culture densities were determined 48 hours later.
(§2) Wild type (WT) L. major LV39 clone 5 (Rho/SU/59/P), FV1 (MOHM/IL/80/Friedlin virulent clone 1), spt2^− (Δspt2::HYG/Dspt2::PAC), ads1^− (Δads1::HYG/Dads1::SAT), and spt2^−/+SPT2 (Δspt2::HYG/Dspt2::PAC/+pXG-SPT2) cells were grown in M199 with 10% FBS and supplements as described [Zhang, et al., 2003; Kapler, et al., 1990]. For growth inhibition assays, promastigotes were inoculated at 1.0×10^5 cells/ml (in T25 flasks, 5 ml of medium per flask) in various concentrations of drugs. All cultures contained equivalent amount of DMSO or methanol (0.1% or less, from drug stocks). After 48 or 96 (for ads1^− only) hours, culture densities were determined using a Coulter counter (Z1, Beckman) and effects of drugs on growth were assessed in relative to cultures grown in the absence of drugs.
A classical isobologram was constructed by plotting EC50s of drugs either alone or in combination.

[2] = tested on: L. major spt2^− promastigotes; experiment: microbe, parasite or virus in culture; format: cell-based, Leishmania major
Description: as §1, §2

[3] = tested on: L. major ads1^− promastigotes; experiment: Growth inhibition assay, EPL-null ads1^− mutant versus FV1 WT; format: cell-based, Leishmania major; conditions: 96 hours for ads1^−
Description: as §2

[4] = tested on: L. major spt2^− promastigotes; experiment: Composition of free sterols by GC/MS, spt2^− promastigotes; format: cell-based, Leishmania major; conditions: 48 hours
Description: (§3) Log phase L. major LV39 WT and spt2^− promastigotes were grown in the presence or absence of ITZ or CLT. Culture densities were determined 48 hours later and total lipids were extracted and the composition of free sterols was determined by GC/MS as described in Materials and Methods. ND: not detectable. Each experiment was repeated at least 3 times and results from one representative set were shown.
(§4) Here WT and spt2^− parasites were grown in various concentrations of ITZ (0.001 nM to 1 μM) or CLT (10 nM to 5 μM). Effects of ITZ and CLT on growth, sterol composition and DRM were analyzed after 48 hours. Basically, culture densities were determined using a particle counter and drugs' effects on growth were assessed in comparison to control cells (no drug); sterol lipids were extracted and analyzed by GC/MS and the percentage of 14-methylfecosterol (among all detectable sterol lipids) was used to reflect changes in sterol composition (see Table 2). DRMs were also isolated and the percentage of GP63 that were insoluble at 4° C. was used as an indicator for the integrity of DRM (see FIG. 2). Two to four independent experiments were performed and the averaged results were plotted in FIG. 3.
(§5) Total lipids were extracted using the Folch's method [Folch, et al., 1957]. Briefly, promastigotes were harvested by centrifugation and washed once with PBS. Pellets were resuspended in chloroform:methanol (2:1) at 1.0×10^8 cells/ml with the addition of cholesta-3,5-diene (Sigma-Aldrich, FW 368.7) at 0.5 mg/10^8 cells (6.6×10^7/cell). After vortexing for 30 s, cell debris was removed by centrifugation (1000 g for 10 min) and samples were washed with 0.2 volume of 0.9% NaCl. After centrifugation, supernatants were removed and the organic phase solutions were dried under a stream of nitrogen. Samples were then dissolved in chloroform:methanol (1:2) at 1.0×10^9 cells/ml.
(§6) Electron impact gas chromatography/mass spectrometry (GC/MS) analyses of sterol lipids were performed on a Finnigan (San Jose, Calif.) SSQ-7000 single-stage quadrupole mass spectrometer with a Varian (Walnut Creek, Calif.) 3400 GC, which is controlled by Finnigan ICIS software operated on a DEC alpha station. The extracts in solution […] were injected in a splitless mode and analyzed by GC on a Restek (Bellefonte, Pa.) RTX-5 column (15 m, 0.33 mm id, […]). The initial temperature of GC was set at 80° C. for 1 min, increased to 220° C. at a rate of 50° C./min, and then raised to a final temperature of 280° C. at a rate of 10° C./min. The temperatures of the injector, transfer line of the GC column, and of the ion-source were set at 280° C., 280° C., and 240° C., respectively. The full scan mass spectra (50 to 500 Dalton) were acquired at a rate of 1 scan/0.25 Sec.

[5] = tested on: L. major LV39 WT promastigotes; experiment: Composition of free sterols by GC/MS, WT promastigotes; format: cell-based, Leishmania major; conditions: for 5-dehydroepisterol (%) / 14-methylfecosterol (%) / Cholesterol (%) / Episterol (%) / Ergosterol (%) / Total sterols/cell: 48 hours
Description: as §3, §4, §5, §6

[6] = tested on: Leishmania major LV39 clone 5 promastigotes; experiment: Microtiter screen for synergy drugs (cellular ATP, luciferase based); format: cell-based; conditions: follow-up of class d hits
Description: Following inoculation, parasites were allowed to grow until late logarithmic phase. […] Parasites were inoculated without any drug, singly with the two prototypic synergistic drugs myriocin or itraconazole, or both drugs, at varying concentrations.

[7] = Leishmania major, 48 h, LV39 WT promastigotes, 48 hours; read-out: EC50 in WT
[8] = Leishmania major, 48 h, read-out: EC50 in spt2^−
[9] = LV39 WT promastigotes, 48 hours; read-out: EC50 in WT
[10] = spt2^− promastigotes, 48 hours; read-out: EC50 in spt2^−

CCCCCCCCCCCCCCCCCCOCC(COP(=O)([O-])OCC[N+](C)(C)C)OC (racemic) [Edelfosine, 1-O-octadecyl-2-O-methyl-rac-glycero-3-phosphocholine]
EC50 [1, 7]: 1500 nM
EC50 [2, 8]: 5400 nM
EC50 (WT)/EC50 (spt2^−) ([2]; ratio): 0.28
Selectivity against spt2^− parasites (in words) ([2]; spt2^− versus LV39 WT): failed to show strong selectivity
Sensitivity of ads1^− mutant in comparison to FV1 WT [3]: very similar EC50s; also recorded: little or no selectivity

OC1(c2ccc(-c3ccccc3)cc2)CN2CCC1CC2 (stereo not drawn) [3-(Biphenyl-4-yl)-3-hydroxyquinuclidine]
EC50 [1, 7]: 1580 nM
EC50 [2, 8]: 1120 nM
EC50 (WT)/EC50 (spt2^−) ([2]; ratio): 1.4
Selectivity against spt2^− parasites (in words) ([2]; spt2^− versus LV39 WT): did not cause the extreme hypersensitivity

C[C@@H]1[C@H](O)[C@@H](C)/C=C/C=C/C=C/C=C/C=C/C=C/C=C/[C@H](O[C@@H]2O[C@H](C)[C@@H](O)[C@H](N)[C@@H]2O)C[C@@H]2O[C@](O)(C[C@@H](O)C[C@@H](O)[C@H](O)CC[C@@H](O)C[C@@H](O)CC(=O)O[C@H]1C)C[C@H](O)[C@H]2C(=O)O [Amphotericin B]
EC50 [1, 9]: 41 nM
EC50 (WT)/EC50 (spt2^−) ([2]; ratio): 1.9
EC50 [2, 10]: 22 nM
Selectivity against spt2^− parasites (in words) ([2]; spt2^− versus LV39 WT): nearly equally well

CC[C@@H](C)[C@@H]1NC(=O)[C@@H]2CCCN2C(=O)[C@H](Cc2ccccc2)N(C)C(=O)[C@H](Cc2ccccc2)NC(=O)[C@H](C(C)C)N(C)C(=O)[C@@H]([C@H](C)CC)OC(=O)[C@H](C(C)(C)O)N(C)C(=O)[C@H](CC(C)C)NC(=O)[C@H](C(C)C)N(C)C1=O [Aureobasidin A] (cyclo(F[NMeF]P[aIle][NMeV]L[NMeVal(β-OH)][X1][NMeV]))
EC50 [1, 9]: 560 nM
EC50 (WT)/EC50 (spt2^−) ([2]; ratio): 0.90
EC50 [2, 10]: 620 nM
Sensitivity of ads1^− mutant in comparison to FV1 WT [3]: very similar EC50s

CC(C)[C@@H]1NC(=O)[C@H](Cc2ccccc2)NC(=O)[C@@H]2NC(=O)[C@H](Cc3ccccc3)NC(=O)[C@@H]3CCCN3C(=O)CNC(=O)[C@H](Cc3ccccc3)NC(=O)[C@@H]3CNCCCC[C@@H](C(=O)O)NC(=O)[C@@H]4NC(=O)[C@H](CC(N)=O)NC(=O)CNC(=O)[C@H]([C@@H](O)C(=O)O)NC(=O)[C@H](CSC[C@@H](NC(=O)[C@H](CCC(N)=O)NC(=O)[C@H](CCCNC(=N)N)NC(=O)[C@@H](N)CS[C@H]4C)C(=O)N[C@@H](CS[C@H]2C)C(=O)N3)NC1=O [Cinnamycin]
EC50 [1, 9]: 3100 nM
EC50 (WT)/EC50 (spt2^−) ([2]; ratio): 1.0
EC50 [2, 10]: 3100 nM
Selectivity against spt2^− parasites (in words) ([2]; spt2^− versus LV39 WT): nearly equally well

Clc1ccccc1C(c1ccccc1)(c1ccccc1)n1ccnc1 [Clotrimazole]
CLT concentration needed to achieve any noticeable effects on growth, sterol composition, or DRMs [1]: > 100 nM
Growth (%) [1]: 76.9% and 78.7%
Growth (%) ([2]; spt2^− + 0.2 μM CLT, 48 hours): 93.8%
Growth (%) ([2]; spt2^− + 0.5 μM CLT, 48 hours): 62.8%
5-dehydroepisterol (%) ([4]; spt2^− + 0.2 μM CLT): 44.1%
14-methylfecosterol (%) ([4]; spt2^− + 0.2 μM CLT): 21.5%
Cholesterol (%) ([4]; spt2^− + 0.2 μM CLT): 20.2%
Episterol (%) ([4]; spt2^− + 0.2 μM CLT): 10.7%
Ergosterol (%) ([4]; spt2^− + 0.2 μM CLT): 3.5%
Total sterols/cell ([4]; spt2^− + 0.2 μM CLT): 3.5 × 10^8 /cell
5-dehydroepisterol (%) ([4]; spt2^− + 0.5 μM CLT): 23.9%
14-methylfecosterol (%) ([4]; spt2^− + 0.5 μM CLT): 50.3%
Cholesterol (%) ([4]; spt2^− + 0.5 μM CLT): 21.1%
Episterol (%) ([4]; spt2^− + 0.5 μM CLT): 3.5%
Ergosterol (%) ([4]; spt2^− + 0.5 μM CLT): 1.2%
Total sterols/cell ([4]; spt2^− + 0.5 μM CLT): 3.1 × 10^8 /cell
5-dehydroepisterol (%) ([5]; WT + 0.2 μM CLT): 63.7%
14-methylfecosterol (%) ([5]; WT + 0.2 μM CLT): 9.9%
Cholesterol (%) ([5]; WT + 0.2 μM CLT): 4.5%
Episterol (%) ([5]; WT + 0.2 μM CLT): 17.5%
Ergosterol (%) ([5]; WT + 0.2 μM CLT): 4.4%
Total sterols/cell ([5]; WT + 0.2 μM CLT): 3.3 × 10^8 /cell
5-dehydroepisterol (%) ([5]; WT + 0.5 μM CLT): 42.0%
14-methylfecosterol (%) ([5]; WT + 0.5 μM CLT): 47.1%
Cholesterol (%) ([5]; WT + 0.5 μM CLT): 3.9%
Episterol (%) ([5]; WT + 0.5 μM CLT): 5.1%
Ergosterol (%) ([5]; WT + 0.5 μM CLT): 1.9%
Total sterols/cell ([5]; WT + 0.5 μM CLT): 2.2 × 10^8 /cell

CC(=O)N1CCN(c2ccc(OCC3COC(Cn4ccnc4)(c4ccc(Cl)cc4Cl)O3)cc2)CC1 (stereo not drawn) [Ketoconazole]
Effect on growth [1]: only minor effect on growth
EC50 ([1]; Leishmania major, 48 h, read-out: EC50 in WT): ~3100 nM
EC50 [2, 8]: 10 nM
EC50 (WT)/EC50 (spt2^−) ([2]; ratio): 310
Effect of supplementation of ethanolamine or choline on the sensitivity in spt2^− parasites ([2]; spt2^− with EtN or choline): almost no effect
Sensitivity of ads1^− mutant in comparison to FV1 WT [3]: hypersensitive
Effect on sterol composition ([5]; LV39 WT, 5-10 nM): completely altered the sterol composition

CCn1nc(C(=O)O)c(=O)c2cc3c(cc21)OCO3 [cinoxacin]
Confirmation of synergy with itraconazole [6]: not confirmed

C=C(C)C(=O)C(=CC(=O)O)OC [penicillic acid]
Confirmation of synergy with itraconazole [6]: confirmed
Synergy effect with itraconazole [6]: ~2 fold

Mevinolin
EC50 ([1]; read-out: EC50 in WT; LV39 WT promastigotes, 48 hours): 15000 nM
EC50 (WT)/EC50 (spt2^−) ([2]; ratio): 1.0
EC50 ([2]; read-out: EC50 in spt2^−; spt2^− promastigotes, 48 hours): 15000 nM
Selectivity against spt2^− parasites (in words) ([2]; spt2^− versus LV39 WT): did not cause the extreme hypersensitivity

From patent US20080119483A1, “COMPOSITIONS AND METHODS FOR INHIBITING PROTOZOAN GROWTH” (priority 2006, published 2008)
